# ChEMBL document CHEMBL1201862, “PubChem BioAssay data set” (2004)
#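 Method: 48-hour compound exposure of cells in 96-well plates, five concentrations, linear interpolation of endpoints. GI50: concentration for 50% inhibition of growth.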 Activity calls are given as the source filed them. No stated cut-off is given here; in the data, active = GI50 up to about 1.1 µM and inactive = higher.
# Tests used:
# Test in all cases: NCI anticancer screen, dose series, 48 h
# [1] = test system: RPMI-8226
# [2] = test system: SF-539
# [3] = test system: UO-31
# [4] = test system: OVCAR-4
# [5] = test system: M14
# [6] = test system: COLO 205
# [7] = test system: SF-295
# [8] = test system: IGROV-1
# [9] = test system: ACHN
# [10] = test system: NCI-H460
# [11] = test system: UACC-257
# [12] = test system: U-251
# [13] = test system: CCRF-CEM
# [14] = test system: KM12
# [15] = test system: M19-MEL
# [16] = test system: OVCAR-5
# [17] = test system: A498
# [18] = test system: UACC-62
# [19] = test system: MOLT-4
# [20] = test system: LXFL 529
# [21] = test system: NCI-H23
# [22] = test system: K562
# [23] = test system: SF-268
# [24] = test system: OVCAR-3
# [25] = test system: SK-MEL-2
# [26] = test system: NCI-H522
# [27] = test system: DMS-114
# [28] = test system: KM-20L2
# [29] = test system: HOP-62
# [30] = test system: SNB-75
# [31] = test system: SK-MEL-28
# [32] = test system: HL-60
# [33] = test system: HT-29
# [34] = test system: SK-OV-3
# [35] = test system: SR
# [36] = test system: HOP-92
# [37] = test system: SNB-19
# [38] = test system: RXF 393
# [39] = test system: SNB-78
# [40] = test system: NCI-H226
# [41] = test system: HCT-15
# [42] = test system: HCC 2998
# [43] = test system: DLD-1
# [44] = test system: 786-0
# [45] = test system: TK-10
# [46] = test system: SW-620
# [47] = test system: SN12C
# [48] = test system: LOX IMVI
# [49] = test system: DMS-273
# [50] = test system: Malme-3M
# [51] = test system: HCT-116
# [52] = test system: EKVX
# [53] = test system: SK-MEL-5
# [54] = test system: OVCAR-8
# [55] = test system: A549
smiles,measurement,setting,value
CCO[C@@H]1OC(=O)[C@](C)(C(C)=O)[C@@H]1C,GI50,[1],18.8 µM (inactive)
same,GI50,[2],23.1 µM (inactive)
same,GI50,[3],> 100 µM (inactive)
same,GI50,[4],71.9 µM (inactive)
same,GI50,[5],67 µM (inactive)
same,GI50,[6],> 100 µM (inactive)
same,GI50,[7],36.8 µM (inactive)
same,GI50,[8],> 100 µM (inactive)
same,GI50,[9],> 100 µM (inactive)
same,GI50,[10],> 100 µM (inactive)
same,GI50,[11],> 100 µM (inactive)
same,GI50,[12],34.4 µM (inactive)
same,GI50,[13],14.7 µM (inactive)
same,GI50,[14],> 100 µM (inactive)
same,GI50,[15],58.1 µM (inactive)
same,GI50,[16],> 100 µM (inactive)
same,GI50,[17],> 100 µM (inactive)
same,GI50,[18],57.8 µM (inactive)
same,GI50,[19],23.3 µM (inactive)
same,GI50,[20],40.6 µM (inactive)
same,GI50,[21],16.8 µM (inactive)
same,GI50,[22],44.2 µM (inactive)
same,GI50,[23],14.7 µM (inactive)
same,GI50,[24],29 µM (inactive)
same,GI50,[25],55.2 µM (inactive)
same,GI50,[26],> 100 µM (inactive)
same,GI50,[27],37.2 µM (inactive)
same,GI50,[28],> 100 µM (inactive)
same,GI50,[29],43.2 µM (inactive)
same,GI50,[30],0.21 µM (active)
same,GI50,[31],37.5 µM (inactive)
same,GI50,[32],17.9 µM (inactive)
same,GI50,[33],68.4 µM (inactive)
same,GI50,[34],59 µM (inactive)
same,GI50,[35],27.9 µM (inactive)
same,GI50,[36],27.5 µM (inactive)
same,GI50,[37],75.3 µM (inactive)
same,GI50,[38],41.5 µM (inactive)
same,GI50,[39],33.7 µM (inactive)
O=[N+]([O-])c1ccc2occ3c2c1CCC3,GI50,[1],> 100 µM (inactive)
same,GI50,[2],> 100 µM (inactive)
same,GI50,[3],71.6 µM (inactive)
same,GI50,[4],> 100 µM (inactive)
same,GI50,[40],40 µM (inactive)
same,GI50,[5],> 100 µM (inactive)
same,GI50,[6],> 100 µM (inactive)
same,GI50,[7],> 100 µM (inactive)
same,GI50,[41],> 100 µM
same,GI50,[8],> 100 µM (inactive)
same,GI50,[42],> 100 µM (inactive)
same,GI50,[9],> 100 µM (inactive)
same,GI50,[10],> 100 µM (inactive)
same,GI50,[43],> 100 µM (inactive)
same,GI50,[11],> 100 µM (inactive)
same,GI50,[12],> 100 µM (inactive)
same,GI50,[13],> 100 µM (inactive)
same,GI50,[44],> 100 µM (inactive)
same,GI50,[14],> 100 µM (inactive)
same,GI50,[45],> 100 µM (inactive)
same,GI50,[15],> 100 µM (inactive)
same,GI50,[16],86.1 µM (inactive)
same,GI50,[17],> 100 µM (inactive)
same,GI50,[18],> 100 µM (inactive)
same,GI50,[46],> 100 µM (inactive)
same,GI50,[19],> 100 µM (inactive)
same,GI50,[47],> 100 µM (inactive)
same,GI50,[20],> 100 µM (inactive)
same,GI50,[21],> 100 µM (inactive)
same,GI50,[48],> 100 µM (inactive)
same,GI50,[22],> 100 µM (inactive)
same,GI50,[49],> 100 µM (inactive)
same,GI50,[23],> 100 µM (inactive)
same,GI50,[24],> 100 µM (inactive)
same,GI50,[50],> 100 µM (inactive)
same,GI50,[25],> 100 µM (inactive)
same,GI50,[26],> 100 µM (inactive)
same,GI50,[27],> 100 µM (inactive)
same,GI50,[51],> 100 µM (inactive)
same,GI50,[29],> 100 µM (inactive)
same,GI50,[52],> 100 µM (inactive)
same,GI50,[53],> 100 µM (inactive)
same,GI50,[30],24.4 µM (inactive)
same,GI50,[31],> 100 µM (inactive)
same,GI50,[54],> 100 µM (inactive)
same,GI50,[32],> 100 µM (inactive)
same,GI50,[33],> 100 µM (inactive)
same,GI50,[55],> 100 µM (inactive)
same,GI50,[34],> 100 µM (inactive)
same,GI50,[35],> 100 µM (inactive)
same,GI50,[36],35.2 µM (inactive)
same,GI50,[37],> 100 µM (inactive)
same,GI50,[38],> 100 µM (inactive)
same,GI50,[39],> 100 µM (inactive)
